This note sets out measurements from ChEMBL document CHEMBL4382231, “Chemical preparation, biological evaluation and 3D-QSAR of ethoxysulfuron derivatives as novel antifungal agents targeting acetohydroxyacid synthase” (Eur J Med Chem, 2019).

Assay [1] is described as follows: Inhibition of Candida albicans AHAS catalytic subunit using pyruvate as substrate measured after 30 mins by colorimetric method.
Assay [2] has as its system Candida albicans. In words: Antifungal activity against Candida albicans SC5314 cultured in RPMI 1640 media after 24 hrs by broth microdilution method. The class given is functional. The note with it: SC5314, 24 h. For orientation: Dilution methods test growth across graded concentrations, often in twofold steps.
The subject of assay [3] is Candida albicans. As to the kind of experiment: Antifungal activity against Candida albicans SC5314 cultured in YNB media after 24 hrs by broth microdilution method. The class given is functional. The note with it: SC5314, 24 h.

One may read the Ki as a measure of affinity in units of concentration, obtained from inhibition or displacement. Higher therefore signals weaker binding. The term pKi denotes the negative decadic logarithm of the Ki, by convention in mol/L. Lower therefore signals a high Ki. As usually defined, the MIC is the least concentration at which growth counts as inhibited. The low end stands for greater potency, the high end for weaker potency.

In assay [1], `COc1cc(OC)nc(NC(=O)[N-]S(=O)(=O)Oc2ccccc2C(=O)Oc2ccccc2)n1.[Na+]` registered a Ki of 5860 nM. The pKi in assay [1] is recorded as 5.23. The MIC in the assay on Candida albicans [2] and with Candida albicans [3] was more than 100 µg/mL throughout.
In the case of `COC(=O)c1ccccc1OS(=O)(=O)[N-]C(=O)Nc1nc(Cl)cc(OC)n1.[Na+]`, in assay [1], the inhibition constant (Ki) amounted to 55 nM and the pKi was 7.26. The same compound displayed an MIC in the assay on Candida albicans [2] of more than 100 µg/mL. The same compound gave an MIC against Candida albicans [3] of more than 100 µg/mL.
For the compound `Cc1cc(C)nc(NC(=O)[N-]S(=O)(=O)Oc2ccccc2OCCCl)n1.[Na+]`, the affinity in assay [1] corresponds to a Ki of 822 nM. In assay [1], this compound showed a pKi of 6.08. The minimum inhibitory concentration (MIC) with Candida albicans [2] and in the assay with Candida albicans [3] was more than 100 µg/mL each time.
As to `CCCOC(=O)c1ccccc1OS(=O)(=O)[N-]C(=O)Nc1nc(Br)cc(OC)n1.[Na+]`, in assay [1], the affinity, expressed as Ki, was 758 nM and the pKi is 6.16. For the same compound, the minimum inhibitory concentration (MIC) against Candida albicans [2] is more than 100 µg/mL. Moreover, the MIC in the assay with Candida albicans [3] was more than 100 µg/mL.
Turning to `Cc1cc(C)nc(NC(=O)[N-]S(=O)(=O)Oc2ccccc2C(=O)OC(C)C)n1.[Na+]`, in assay [1], the Ki turned out to be 9840 nM and the pKi was determined as 5. Besides, in the assay with Candida albicans [2], the MIC is more than 100 µg/mL. Further, the MIC in the assay with Candida albicans [3] is more than 100 µg/mL.
In assay [1], `Cc1cc(Cl)nc(NC(=O)[N-]S(=O)(=O)Oc2ccccc2OCCCl)n1.[Na+]` came in with a Ki of 95 nM and a pKi of 7.02. In addition, in the assay on Candida albicans [2], the MIC is more than 100 µg/mL. Further, the MIC in the assay with Candida albicans [3] is more than 100 µg/mL.
In assay [1], `COc1cc(C)nc(NC(=O)[N-]S(=O)(=O)Oc2ccccc2C(=O)OCC(F)(F)F)n1.[Na+]` came in with a Ki of 310 nM and a pKi of 6.51. This compound gave an MIC with Candida albicans [2] of more than 100 µg/mL. In the assay on Candida albicans [3], this compound yielded an MIC of 20 µg/mL.
The matching figures for `COc1cc(Cl)nc(NC(=O)[N-]S(=O)(=O)Oc2ccccc2C(=O)OCCI)n1.[Na+]`: 547 nM, 6.26, more than 100 µg/mL and more than 100 µg/mL.
For `COC(=O)c1ccccc1OS(=O)(=O)[N-]C(=O)Nc1nc(Br)cc(OC)n1.[Na+]`, in that order: 643 nM, 6.28, more than 100 µg/mL and more than 100 µg/mL.
For `CCOC(=O)c1ccc(OS(=O)(=O)[N-]C(=O)Nc2nc(Cl)cc(OC)n2)cc1.[Na+]`, in that order: 15400 nM, 4.81, more than 100 µg/mL and more than 100 µg/mL.
In assay [1], `COc1cc(Br)nc(NC(=O)[N-]S(=O)(=O)Oc2ccccc2[N+](=O)[O-])n1.[Na+]` had a Ki of 247 nM and a pKi of 6.6. The same compound came in with an MIC in the assay on Candida albicans [2] of more than 100 µg/mL. The compound also displayed a minimum inhibitory concentration (MIC) against Candida albicans [3] of more than 100 µg/mL.
In assay [1], `Cc1cc(C)nc(NC(=O)[N-]S(=O)(=O)Oc2ccccc2C(=O)OCCCl)n1.[Na+]` yielded a Ki of 3360 nM and a pKi of 5.48. In the assay with Candida albicans [2], this compound showed an MIC of more than 100 µg/mL. Also, the MIC against Candida albicans [3] was more than 100 µg/mL.
On to `CCCOC(=O)c1ccccc1OS(=O)(=O)[N-]C(=O)Nc1nc(I)cc(OC)n1.[Na+]`, for which, in assay [1], the Ki was determined as 862 nM and the pKi worked out at 6.06. The MIC in the assay on Candida albicans [2] is more than 100 µg/mL. This compound registered an MIC in the assay with Candida albicans [3] of more than 100 µg/mL.
`CCCOC(=O)c1ccccc1OS(=O)(=O)[N-]C(=O)Nc1nc(C)cc(C)n1.[Na+]`: in assay [1], the Ki was 2690 nM and the pKi amounted to 5.57. The compound also showed an MIC in the assay with Candida albicans [2] of more than 100 µg/mL. In the assay on Candida albicans [3], this compound yielded an MIC of more than 100 µg/mL.
Consider `Cc1cc(Cl)nc(NC(=O)[N-]S(=O)(=O)Oc2ccc([N+](=O)[O-])cc2)n1.[Na+]`, for which the Ki in assay [1] was more than 50000 nM. Also, the MIC against Candida albicans [2] and in the assay on Candida albicans [3] was more than 100 µg/mL in each case.
With `Cc1cc(C)nc(NC(=O)[N-]S(=O)(=O)Oc2ccccc2C(=O)OCCI)n1.[Na+]`, the affinity in assay [1] corresponds to a Ki of 15000 nM. Moreover, in assay [1], the pKi amounted to 4.82. Further, the MIC against Candida albicans [2] and in the assay on Candida albicans [3] was more than 100 µg/mL throughout.
On to `Cc1cc(Cl)nc(NC(=O)[N-]S(=O)(=O)Oc2ccccc2C(=O)OCCI)n1.[Na+]`, for which the affinity in assay [1] corresponds to a Ki of 2330 nM. The pKi in assay [1] amounted to 5.64. The MIC in the assay on Candida albicans [2] and in the assay on Candida albicans [3] was more than 100 µg/mL each time.
